In patent publication US20180141939A1, “SOLID FORMS OF A BET INHIBITOR” (Gilead Sciences, Inc., priority 2016, published 2018):

Key:
Type in all cases: physicochemical
[1] = Approximate solubility in single solvents
Text: (§1) In some embodiments, Compound I phosphate Form I, once formed, e.g., via the reactive crystallization methods disclosed herein, may be recrystallized from a variety of single solvents or binary solvent systems (e.g., solvent/anti-solvent systems) to promote desired physical characteristics such as crystal size. Recrystallization of Compound I phosphate Form I may occur with or without the addition of Compound I phosphate Form I seed material. The single solvents and binary solvent systems in which Compound I phosphate Form I may be recrystallized include, but are not limited to, MeOH, MeOH/EtOAc, DMA/MeCN, DMAc/toluene, DMF/MeCN, DMAc/MeCN, DMF/EtOAc, DMF/toluene, DMSO/MeCN, DMSO/MeCN, DMSO/IPA, NMP/MeCN, NMP/IPA, and NMP/EtOAc. A summary of the approximate solubility of Compound I phosphate Form I in various single solvents and binary solvent systems is provided in Tables I and II, respectively.

[2] = Approximate solubility in 1:1 (v/v) binary solvents
Text: as §1

[3] = Kinetic aqueous solubility / solubility in water of salt and co-crystal forms; details: aqueous
[4] = Solid-state chemical stability at various storage conditions
[5] = Dissolution in 50 mM sodium acetate solution, pH 5; details: pH of 5
Protocol: The dissolution of […] and […] was also evaluated in a 50 mM sodium acetate solution at a pH of 5 (FIG. 92).

[6] = Relative stability of solid forms (competitive slurries); details: statement in words

Cc1noc(C)c1-c1cc(C(O)(c2ccccn2)c2ccccn2)c2nc(C3CC3)[nH]c2c1 [Compound I phosphate Form I, (2-cyclopropyl-6-(3,5-dimethylisoxazol-4-yl)-1H-benzo[d]imidazol-4-yl)di(pyridin-2-yl)methanol]
Approximate Solubility ([1]; 1,4-dioxane, 20-80° C.): remained a slurry
Approximate Solubility ([1]; 1-Propanol, 20-80° C.): remained a slurry
Approximate Solubility ([1]; 2-Butanol, 20-80° C.): remained a slurry
Approximate Solubility ([1]; 2-MeTHF, 20° C.): 0.64 mg-solid/ml-solvent
Approximate Solubility ([1]; 2-Propanol/IPA, 20° C.): 1.02 mg-solid/ml-solvent
Approximate Solubility ([1]; Acetic Acid, 20° C.): ~190 mg-solid/ml-solvent
Approximate Solubility ([1]; Acetic Acid, 50° C.): >190 mg-solid/ml-solvent
Approximate Solubility ([1]; Acetic Acid, 80° C.): >>190 mg-solid/ml-solvent
Approximate Solubility ([1]; Acetone, 20° C.): 0.48 mg-solid/ml-solvent
Approximate Solubility ([1]; Acetonitrile, 20° C.): 0.23 mg-solid/ml-solvent
Approximate Solubility ([1]; DCM (form changes), 20° C.): 1.54 mg-solid/ml-solvent
Approximate Solubility ([1]; DMAc, 50° C.): >78 mg-solid/ml-solvent
Approximate Solubility ([1]; DMAc, 80° C.): >>78 mg-solid/ml-solvent
Approximate Solubility ([1]; DMF, 50° C.): <70 mg-solid/ml-solvent
Approximate Solubility ([1]; DMF, 80° C.): >70 mg-solid/ml-solvent
Approximate Solubility ([1]; DMSO, 50° C.): >185 mg-solid/ml-solvent
Approximate Solubility ([1]; DMSO, 80° C.): >>185 mg-solid/ml-solvent
Approximate Solubility ([1]; EtOH/water, 20° C.): 22.7 mg-solid/ml-solvent
Approximate Solubility ([1]; Ethanol, 20° C.): 2.46 mg-solid/ml-solvent
Approximate Solubility ([1]; Ethyl acetate, 20° C.): 0.45 mg-solid/ml-solvent
Approximate Solubility ([1]; Heptane, 20° C.): <LOD
Approximate Solubility ([1]; Heptane, cell spans the 50° C. and 80° C. columns): remained a slurry
Approximate Solubility ([1]; Hexane, 20-80° C.): API adhered to vial walls
Approximate Solubility ([1]; Isopropyl acetate, 20° C.): 0.37 mg-solid/ml-solvent
Approximate Solubility ([1]; MEK, 20° C.): 2.14 mg-solid/ml-solvent
Approximate Solubility ([1]; MIBK, 20° C.): 0.31 mg-solid/ml-solvent
Approximate Solubility ([1]; MTBE, 20° C.): 0.16 mg-solid/ml-solvent
Approximate Solubility ([1]; Methanol, 20° C.): 12.56 mg-solid/ml-solvent
Approximate Solubility ([1]; NMP, 50° C.): >135 mg-solid/ml-solvent
Approximate Solubility ([1]; NMP, 80° C.): >>135 mg-solid/ml-solvent
Approximate Solubility ([1]; THF, 20° C.): 0.48 mg-solid/ml-solvent
Approximate Solubility ([1]; Toluene, 20° C.): 1.34 mg-solid/ml-solvent
Approximate Solubility ([1]; Water, 20° C.): 12.16 mg-solid/ml-solvent
Approximate Solubility ([2]; DMAc/2-MeTHF 1:1 (v/v), 50° C.): ~17.2 mg-solid/ml-solvent
Approximate Solubility ([2]; DMAc/Acetone 1:1 (v/v), 50° C.): ~11.3 mg-solid/ml-solvent
Approximate Solubility ([2]; DMAc/EtOAc 1:1 (v/v), 80° C.): ~10.8 mg-solid/ml-solvent
Approximate Solubility ([2]; DMAc/IPA 1:1 (v/v), 80° C.): ~21 mg-solid/ml-solvent
Approximate Solubility ([2]; DMAc/IPAc 1:1 (v/v), 50° C.): ~7.7 mg-solid/ml-solvent
Approximate Solubility ([2]; DMAc/MIBK 1:1 (v/v), 50° C.): ~15 mg-solid/ml-solvent
Approximate Solubility ([2]; DMAc/MeCN 1:1 (v/v), 50° C.): ~11.5 mg-solid/ml-solvent
Approximate Solubility ([2]; DMF/2-MeTHF 1:1 (v/v), 50° C.): ~14.3 mg-solid/ml-solvent
Approximate Solubility ([2]; DMF/Acetone 1:1 (v/v), 50° C.): ~19.5 mg-solid/ml-solvent
Approximate Solubility ([2]; DMF/EtOAc 1:1 (v/v), 50° C.): ~10.8 mg-solid/ml-solvent
Approximate Solubility ([2]; DMF/IPA 1:1 (v/v), 50° C.): ~14 mg-solid/ml-solvent
Approximate Solubility ([2]; DMF/IPAc 1:1 (v/v), 50° C.): ~13.7 mg-solid/ml-solvent
Approximate Solubility ([2]; DMF/MIBK 1:1 (v/v), 80° C.): ~6 mg-solid/ml-solvent
Approximate Solubility ([2]; DMF/MIBK 1:1 (v/v), cell spans the 20° C. and 50° C. columns): remained a thin slurry
Approximate Solubility ([2]; DMF/MeCN 1:1 (v/v), 50° C.): ~11 mg-solid/ml-solvent
Approximate Solubility ([2]; DMSO/2-MeTHF 1:1 (v/v), 20° C.): >51.5 mg-solid/ml-solvent
Approximate Solubility ([2]; DMSO/2-MeTHF 1:1 (v/v), 50° C.): >>51.5 mg-solid/ml-solvent
Approximate Solubility ([2]; DMSO/2-MeTHF 1:1 (v/v), 80° C.): >>>51.5 mg-solid/ml-solvent
Approximate Solubility ([2]; DMSO/Acetone 1:1 (v/v), 20° C.): >30 mg-solid/ml-solvent
Approximate Solubility ([2]; DMSO/Acetone 1:1 (v/v), 50° C.): >>30 mg-solid/ml-solvent
Approximate Solubility ([2]; DMSO/Acetone 1:1 (v/v), 80° C.): >>>30 mg-solid/ml-solvent
Approximate Solubility ([2]; DMSO/EtOAc 1:1 (v/v), 50° C.): >51.5 mg-solid/ml-solvent
Approximate Solubility ([2]; DMSO/EtOAc 1:1 (v/v), 80° C.): >>51.5 mg-solid/ml-solvent
Approximate Solubility ([2]; DMSO/IPA 1:1 (v/v), 80° C.): >41 mg-solid/ml-solvent
Approximate Solubility ([2]; DMSO/IPAc 1:1 (v/v), 20° C.): >32 mg-solid/ml-solvent
Approximate Solubility ([2]; DMSO/IPAc 1:1 (v/v), 50° C.): >>32 mg-solid/ml-solvent
Approximate Solubility ([2]; DMSO/IPAc 1:1 (v/v), 80° C.): >>>32 mg-solid/ml-solvent
Approximate Solubility ([2]; DMSO/MIBK 1:1 (v/v), 50° C.): >50.5 mg-solid/ml-solvent
Approximate Solubility ([2]; DMSO/MIBK 1:1 (v/v), 80° C.): >>50.5 mg-solid/ml-solvent
Approximate Solubility ([2]; DMSO/MeCN 1:1 (v/v), 50° C.): >33.5 mg-solid/ml-solvent
Approximate Solubility ([2]; DMSO/MeCN 1:1 (v/v), 80° C.): >>33.5 mg-solid/ml-solvent
Approximate Solubility ([2]; HOAC/2-MeTHF 1:1 (v/v), 80° C.): ~15.3 mg-solid/ml-solvent
Approximate Solubility ([2]; HOAC/Acetone 1:1 (v/v), 50° C.): >43 mg-solid/ml-solvent
Approximate Solubility ([2]; HOAC/Acetone 1:1 (v/v), 80° C.): >>43 mg-solid/ml-solvent
Approximate Solubility ([2]; HOAC/EtOAc 1:1 (v/v), 50° C.): ~13.8 mg-solid/ml-solvent
Approximate Solubility ([2]; HOAC/EtOAc 1:1 (v/v), 80° C.): >41.5 mg-solid/ml-solvent
Approximate Solubility ([2]; HOAC/IPA 1:1 (v/v), 80° C.): >44.5 mg-solid/ml-solvent
Approximate Solubility ([2]; HOAC/IPAc 1:1 (v/v), 50° C.): ~8.3 mg-solid/ml-solvent
Approximate Solubility ([2]; HOAC/IPAc 1:1 (v/v), 80° C.): >8.3 mg-solid/ml-solvent
Approximate Solubility ([2]; HOAC/MIBK 1:1 (v/v), 50° C.): ~22 mg-solid/ml-solvent
Approximate Solubility ([2]; HOAC/MIBK 1:1 (v/v), 80° C.): >22 mg-solid/ml-solvent
Approximate Solubility ([2]; HOAC/MeCN 1:1 (v/v), 20° C.): >30.5 mg-solid/ml-solvent
Approximate Solubility ([2]; HOAC/MeCN 1:1 (v/v), 50° C.): >>30.5 mg-solid/ml-solvent
Approximate Solubility ([2]; HOAC/MeCN 1:1 (v/v), 80° C.): >>>30.5 mg-solid/ml-solvent
Approximate Solubility ([2]; NMP/2-MeTHF 1:1 (v/v), 20° C.): ~12 mg-solid/ml-solvent
Approximate Solubility ([2]; NMP/2-MeTHF 1:1 (v/v), 80° C.): ~24 mg-solid/ml-solvent
Approximate Solubility ([2]; NMP/Acetone 1:1 (v/v), 50° C.): >24 mg-solid/ml-solvent
Approximate Solubility ([2]; NMP/Acetone 1:1 (v/v), 80° C.): >>24 mg-solid/ml-solvent
Approximate Solubility ([2]; NMP/IPAc 1:1 (v/v), 50° C.): ~15 mg-solid/ml-solvent
Approximate Solubility ([2]; NMP/IPAc 1:1 (v/v), 80° C.): >44 mg-solid/ml-solvent
Approximate Solubility ([2]; NMP/MeCN 1:1 (v/v), 80° C.): >27.5 mg-solid/ml-solvent
kinetic aqueous solubility [3]: about 3 mg/mL
% AN ([4]; 4° C., 1 month): 97.1%
% LS ([4]; 4° C., 1 month): 100.8%
% AN ([4]; 25° C./60% RH, 1 month): 97.1%
% LS ([4]; 25° C./60% RH, 1 month): 100.8%
% AN ([4]; 40° C./75% RH, 1 month): 97.2%
% LS ([4]; 40° C./75% RH, 1 month): 100.7%
% AN ([4]; 40° C./75% RH, open, 1 month): 97.1%
% LS ([4]; 40° C./75% RH, open, 1 month): 100.0%
% AN ([4]; 60° C., 1 month): 97.1%
% LS ([4]; 60° C., 1 month): 100.7%
% AN ([4]; Initial Time): 97.1%
chemical stability ([4]; up to about 40° C./75% RH for about 3 months): chemically stable
chemical stability ([4]; various conditions for about 1 month): chemically stable
% AN ([4]; −20° C., 1 month): 96.9%
% LS ([4]; −20° C., 1 month): 100.9%
dissolution [5]: dissolve rapidly and maintain solubility for about 24 hours
thermodynamic / physical stability of the solid form [6]: most thermodynamically stable form of Compound I phosphate in most solvents
